# Biological target: rat mGlu 5a receptor (Rattus norvegicus (Rat), UniProt P31424)
# Assay: MPEP binding / [Ca2+]i FLIPR measurement on mGlu 5a transfected EBNA cells, antagonists tested against 10 μM glutamate
# Conditions: rat mGlu 5a receptor transiently transfected into EBNA cells; Ki calculated from IC50
# Experimental: The pharmacological activity of the compounds was tested using the following method: cDNA encoding rat mGlu 5a receptor was transiently transfected into EBNA cells using a procedure described by E.-J. Schlaeger and K. Christensen (Cytotechnology 1998, 15, 1-13). [Ca^2+]i measurements were performed on mGlu 5a transfected EBNA cells after incubation of the cells with Fluo 3-AM (obtainable by FLUKA, 0.5 μM final concentration) for 1 hour at 37° C. followed by 4 washes with assay buffer (DMEM supplemented with Hank's salt and 20 mM HEPES. [Ca^2+]i measurements were done using a fluorometric imaging plate reader (FLIPR, Molecular Devices Corporation, La Jolla, Calif., USA). When compounds were evaluated as antagonists they were tested against 10 μM glutamate as agonist.
# The inhibition (antagonists) curves were fitted with a four parameter logistic equation giving IC50, and Hill coefficient using the iterative non linear curve fitting software Origin (Microcal Software Inc., Northampton, Mass., USA).
# The Ki values of the compounds tested are given. The Ki value is defined by the following formula:
# [formula] in which the IC50 values are those concentrations of the compounds tested in μM by which 50% of the effect of compounds are antagonized. [L] is the concentration and the EC50 value is the concentration of the compounds in μM which brings about 50% stimulation.
# The compounds of the present invention are mGluR5 receptor antagonists.
# Sequence of rat mGlu 5a receptor (P31424 other isoform, or with tags, fused parts or gaps): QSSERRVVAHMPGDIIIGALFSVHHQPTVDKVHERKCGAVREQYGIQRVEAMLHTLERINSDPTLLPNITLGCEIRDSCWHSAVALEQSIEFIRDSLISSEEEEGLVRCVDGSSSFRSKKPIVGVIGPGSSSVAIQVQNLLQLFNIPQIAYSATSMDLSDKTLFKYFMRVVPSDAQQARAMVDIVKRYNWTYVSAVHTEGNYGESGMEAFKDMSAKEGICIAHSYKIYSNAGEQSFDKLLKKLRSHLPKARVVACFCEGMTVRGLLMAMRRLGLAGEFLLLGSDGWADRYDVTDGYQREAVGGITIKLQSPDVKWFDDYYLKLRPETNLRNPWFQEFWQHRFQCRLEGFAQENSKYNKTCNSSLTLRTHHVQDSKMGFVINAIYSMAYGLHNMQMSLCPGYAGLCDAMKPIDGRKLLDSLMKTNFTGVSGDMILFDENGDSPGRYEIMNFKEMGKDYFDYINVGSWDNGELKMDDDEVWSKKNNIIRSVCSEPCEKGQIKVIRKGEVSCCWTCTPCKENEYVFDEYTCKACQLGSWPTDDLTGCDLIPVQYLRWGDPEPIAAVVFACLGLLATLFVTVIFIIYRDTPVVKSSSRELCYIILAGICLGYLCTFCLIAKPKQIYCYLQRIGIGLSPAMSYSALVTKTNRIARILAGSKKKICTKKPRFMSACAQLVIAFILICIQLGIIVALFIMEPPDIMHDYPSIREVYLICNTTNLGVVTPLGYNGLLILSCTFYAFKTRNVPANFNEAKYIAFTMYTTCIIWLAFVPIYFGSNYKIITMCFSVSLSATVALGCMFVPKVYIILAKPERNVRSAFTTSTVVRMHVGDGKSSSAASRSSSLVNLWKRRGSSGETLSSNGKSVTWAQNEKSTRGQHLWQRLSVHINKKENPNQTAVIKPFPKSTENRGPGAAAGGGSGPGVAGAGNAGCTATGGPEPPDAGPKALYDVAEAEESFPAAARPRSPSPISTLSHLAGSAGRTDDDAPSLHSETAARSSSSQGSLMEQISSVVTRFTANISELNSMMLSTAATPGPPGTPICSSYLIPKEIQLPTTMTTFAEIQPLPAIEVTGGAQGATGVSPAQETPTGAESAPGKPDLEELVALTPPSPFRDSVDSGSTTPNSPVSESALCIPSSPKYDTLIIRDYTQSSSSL
row,Ki [nM],Structure (SMILES)
1,18,"CN1C(=O)C(C)(C)N=C1c1ccc(C#Cc2cccc(F)c2)cn1 [Example 1, 2-[5-[2-(3-Fluorophenyl)ethynyl]-2-pyridyl]-3,5,5-trimethyl-imidazol-4-one]"
2,38,"CN1C(=O)C(C)(C)N=C1c1ccc(C#Cc2ccccc2)cn1 [Example 2, 3,5,5-Trimethyl-2-[5-(2-phenylethynyl)-2-pyridyl]imidazol-4-one]"
3,16,"CN1C(=O)C(C)(C)N=C1c1ccc(C#Cc2cccc(Cl)c2)cn1 [Example 3, 2-[5-[2-(3-Chlorophenyl)ethynyl]-2-pyridyl]-3,5,5-trimethyl-imidazol-4-one]"
4,80,"CN1C(=O)C(C)(C)N=C1c1ncc(C#Cc2cccc(Cl)c2)cn1 [Example 4, 2-[5-[2-(3-Chlorophenyl)ethynyl]-2-pyrimidyl]-3,5,5-trimethyl-imidazol-4-one]"
5,281,"CN1C(=O)C(C)(C)N=C1c1ncc(C#Cc2ccccc2)cn1 [Example 5, 3,5,5-Trimethyl-2-[5-(2-phenylethynyl)-2-pyrimidyl]imidazol-4-one]"
6,280,"CN1C(=O)C(C)(C)N=C1c1ncc(C#Cc2cccc(F)c2)cn1 [Example 6, 2-[5-[2-(3-Fluorophenyl)ethynyl]-2-pyrimidyl]-3,5,5-trimethyl-imidazol-4-one]"

# — patent US9682959B2, “Ethynyl derivatives” (Hoffmann-La Roche Inc., priority 2013, dated 2017)
